Measured values published in patent US9078871B2, “Estrogen receptor modulators and uses thereof” (SERAGON PHARMACEUTICALS, INC., priority 2010, dated 2015).

Experiments:
[1] = tested on: MCF-7 cells; assay: Breast Cancer Cell Viability Assay (MCF7 Viability Assay); assay type: cell-based; conditions: 5 days' compound exposure, CellTiter-Glo; for IC50: Homo sapiens, MCF7, 120 h
How it was run: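 MCF-7 cells, 320 per well in RPMI with 10% FBS and 20 mM HEPES, adhered overnight, then exposed 5 days to an eleven-point semilog dilution (final 0.3–0.000003 μM). CellTiter-Glo luminescence; % viability relative to untreated cells after subtracting cell-free background.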

[2] = molecular target: T1, ER-α (Homo sapiens, UniProt P03372); assay: ER-α in Cell Western Assay (SP1); assay type: cell-based; conditions: MCF-7 cells, SP1 rabbit monoclonal Ab, 4 or 24 hr post compound addition, read-out: ER In-Cell Western Assay (SP1); for Emax: MCF7, Max Response; for DC50: IC50
T1 construct: endogenous in cells; host or cells: MCF-7
T1 sequence (P03372 1-595): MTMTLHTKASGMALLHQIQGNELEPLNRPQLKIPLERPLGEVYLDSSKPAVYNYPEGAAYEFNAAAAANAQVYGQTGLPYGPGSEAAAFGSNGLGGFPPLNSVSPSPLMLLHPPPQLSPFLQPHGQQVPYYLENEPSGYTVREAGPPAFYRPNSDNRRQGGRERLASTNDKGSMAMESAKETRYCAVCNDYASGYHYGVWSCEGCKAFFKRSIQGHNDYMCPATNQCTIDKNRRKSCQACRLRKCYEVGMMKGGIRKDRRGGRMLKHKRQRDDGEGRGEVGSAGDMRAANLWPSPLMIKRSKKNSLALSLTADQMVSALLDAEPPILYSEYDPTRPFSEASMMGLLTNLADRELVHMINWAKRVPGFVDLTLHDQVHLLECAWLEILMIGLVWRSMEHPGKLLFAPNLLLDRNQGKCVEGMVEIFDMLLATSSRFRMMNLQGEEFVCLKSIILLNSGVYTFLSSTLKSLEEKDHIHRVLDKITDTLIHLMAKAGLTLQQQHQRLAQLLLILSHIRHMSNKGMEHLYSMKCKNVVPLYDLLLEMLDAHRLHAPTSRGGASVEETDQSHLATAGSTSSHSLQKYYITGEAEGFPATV
How it was run: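 MCF-7 cells in charcoal-stripped FBS medium treated with 11-point semilog dilutions (0.3–0.000003 μM final) for 4 or 24 hr, then fixed and immunostained with SP1 anti-ER antibody. ER signal (800 nm) normalized to DRAQ5 DNA signal (700 nm) and expressed as % of untreated cells.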

[3] = molecular target: T1, ER-α; assay: ER-α In Cell Western Assay (ER1D5); assay type: cell-based; conditions: MCF-7 cells, ER1D5 antibody, 4 or 24 hr post compound addition, read-out: ER In-Cell Western Assay (ER1D5); for Emax: MCF7, Max Response; for DC50: IC50
How it was run: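 MCF-7 cells in RPMI with 10% charcoal-stripped FBS treated with 11-point semilog series (0.3–0.000003 μM final) for 4 or 24 h. Fixed cells stained with ER1D5 plus IRDye 800CW secondary and DRAQ5; ER level = 800/700 nm intensity ratio as % of untreated cells.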

[4] = tested on: MCF-7 tumors; assay: Xenograft Assay (MCF-7 Derivative), tamoxifen treatment of MCF-7 tumors; assay type: in vivo; conditions: female nu/nu mice with 17-β estradiol pellets bearing MCF-7 tumors, oral gavage
Method: Female nu/nu mice (with supplemental 17-P3 Estradiol pellets; 0.72 mg; 60 day slow release) bearing MCF-7 tumors (mean tumor volume 200 mm^3) were treated with Tamoxifen (citrate) by oral gavage. Tumor volume (length×width^2/2) and body weight were monitored twice weekly. […] At 120 days of treatment, tamoxifen dose was increased. Rapidly growing tumors were deemed tamoxifen resistant and selected for in vivo passage into new host animals. Tumor Fragments (˜100 mm^3/animal) from the tamoxifen resistant tumors were subcutaneously implanted into the right flank of female nu/nu mice (with 17-P3 Estradiol pellets (0.72 mg; 60 day slow release)). Passaged tumors were maintained under constant Tamoxifen selection and Tumor volume (length×width^2/2) monitored weekly. When tumor volume reached ˜150-250 mm^3, animals were randomized into treatment groups (mean tumor volume 200 mm^3) and tamoxifen treatment was terminated (except for a tamoxifen control arm). Animals were treated with Vehicle or test compound daily for 4 weeks. Tumor volume and body weight were monitored twice weekly for the duration of the study. At the conclusion of the treatment period; plasma and tumor samples were taken for pharmacokinetic and pharmacodynamic analyses, respectively.

Row | Structure (SMILES) | IC50 [1] | Emax [2] | DC50 [2] | Emax [3] | DC50 [3] | MCF7 Viability Assay Max Response [1] | anti-tumor response (tumor volume) [4] | time at which evident tumor growth was first observed [4]
1 | CC1=C(c2ccc(C)c(O)c2)C(c2ccc(OC[C@H](C)N3CC[C@@H](C)C3)cc2)Oc2ccc(O)cc21 (stereo partly drawn) [Example 39, 3-(3-Hydroxy-4-methylphenyl)-4-methyl-2-(4-((S)-2-((R)-3-methylpyrrolidin-1-yl)propoxy)phenyl)-2H-chromen-6-ol] | > 1 nM | 60 to 85% | > 1 nM | ≥ 65% | > 1 nM | ++ (++ = a single % value ≧50%) | – | –
2 | CC1=C(c2ccc(Br)cc2)C(c2ccc(OC[C@H](C)N3CC[C@@H](C)C3)cc2)Oc2ccc(O)cc21 (stereo partly drawn) [Example 54, 3-(4-Bromophenyl)-4-methyl-2-(4-((S)-2-((R)-3-methylpyrrolidin-1-yl)propoxy)phenyl)-2H-chromen-6-ol] | > 1 nM | 60 to 85% | > 1 nM | ≥ 65% | > 1 nM | ++ (++ = a single % value ≧50%) | – | –
3 | CC1=C(c2ccc(F)cc2)C(c2ccc(OCCN3CCCC3)cc2)Oc2ccc(O)cc21 (centres unmarked) [Example 55, 3-(4-Fluorophenyl)-4-methyl-2-(4-(2-(pyrrolidin-1-yl)ethoxy)phenyl)-2H-chromen-6-ol] | > 1 nM | 60 to 85% | ≤ 1 nM | 40 to 65% | > 1 nM | ++ (++ = a single % value ≧50%) | – | –
4 | C#Cc1ccc(C2=C(C)c3cc(O)ccc3OC2c2ccc(OC[C@H](C)N3CC[C@@H](C)C3)cc2)cc1 (stereo partly drawn) [Example 58, 3-(4-Ethynylphenyl)-4-methyl-2-(4-((S)-2-((R)-3-methylpyrrolidin-1-yl)propoxy)phenyl)-2H-chromen-6-ol] | > 1 nM | 60 to 85% | ≤ 1 nM | ≥ 65% | > 1 nM | ++ (++ = a single % value ≧50%) | – | –
5 | CC1=C(c2ccc(S(C)(=O)=O)cc2)C(c2ccc(OC[C@H](C)N3CC[C@@H](C)C3)cc2)Oc2ccc(O)cc21 (stereo partly drawn) [Example 59, 4-Methyl-2-(4-((S)-2-((R)-3-methylpyrrolidin-1-yl)propoxy)phenyl)-3-(4-(methylsulfonyl)phenyl)-2H-chromen-6-ol] | > 1 nM | 60 to 85% | > 1 nM | 40 to 65% | > 1 nM | ++ (++ = a single % value ≧50%) | – | –
6 | CC/C(=C(\c1ccccc1)c1ccc(OCCN(C)C)cc1)c1ccccc1 [Tamoxifen, tamoxifen] | – | – | – | – | – | – | tumor volume remained static | approximately 100 days of treatment

Second part, led by results:

Row | IC50 [1] | Emax [2] | DC50 [2] | Emax [3] | DC50 [3] | Structure (SMILES) | MCF7 Viability Assay Max Response [1] | anti-tumor response (tumor volume) [4] | time at which evident tumor growth was first observed [4]
7 | ≤ 1 nM | ≥ 85% | ≤ 1 nM | ≥ 65% | ≤ 1 nM | CC1=C(c2ccc(O)c(F)c2)C(c2ccc(OC[C@H](C)N3CC[C@@H](C)C3)cc2)Oc2ccc(O)cc21 (stereo partly drawn) [Example 33, 3-(3-Fluoro-4-hydroxyphenyl)-4-methyl-2-(4-((S)-2-((R)-3-methylpyrrolidin-1-yl)propoxy)phenyl)-2H-chromen-6-ol] | ++ (++ = a single % value ≧50%) | – | –
8 | ≤ 1 nM | 60 to 85% | ≤ 1 nM | 40 to 65% | ≤ 1 nM | CC1=C(c2cccc(O)c2)C(c2ccc(OCCN3CCCC3)cc2F)Oc2ccc(O)cc21 (centres unmarked) [Example 34, 2-(2-Fluoro-4-(2-(pyrrolidin-1-yl)ethoxy)phenyl)-3-(3-hydroxyphenyl)-4-methyl-2H-chromen-6-ol] | ++ (++ = a single % value ≧50%) | – | –
9 | ≤ 1 nM | ≥ 85% | ≤ 1 nM | ≥ 65% | ≤ 1 nM | CC1=C(c2cccc(O)c2)C(c2ccc(OC[C@H](C)N3CC[C@@H](C)C3)cc2F)Oc2ccc(O)cc21 (stereo partly drawn) [Example 35, 2-(2-Fluoro-4-((S)-2-((R)-3-methylpyrrolidin-1-yl)propoxy)phenyl)-3-(3-hydroxyphenyl)-4-methyl-2H-chromen-6-ol] | ++ (++ = a single % value ≧50%) | – | –
10 | ≤ 1 nM | 60 to 85% | ≤ 1 nM | 40 to 65% | ≤ 1 nM | CC1=C(c2cccc(O)c2)C(c2ccc(OCCN3CCCC3)cc2)Oc2ccc(O)cc21 (centres unmarked) [Example 36, 3-(3-Hydroxyphenyl)-4-methyl-2-(4-(2-(pyrrolidin-1-yl)ethoxy)phenyl)-2H-chromen-6-ol] | ++ (++ = a single % value ≧50%) | – | –
11 | ≤ 1 nM | 60 to 85% | ≤ 1 nM | 40 to 65% | ≤ 1 nM | CC1=C(c2cccc(O)c2)C(c2ccc(OC[C@H](C)N3CCC3)cc2)Oc2ccc(O)cc21 (stereo partly drawn) [Example 37, 2-(4-((S)-2-(Azetidin-1-yl)propoxy)phenyl)-3-(3-hydroxyphenyl)-4-methyl-2H-chromen-6-ol] | ++ (++ = a single % value ≧50%) | – | –
12 | ≤ 1 nM | 60 to 85% | ≤ 1 nM | 40 to 65% | ≤ 1 nM | CC1=C(c2cccc(O)c2)C(c2ccc(OCCN3CCC3)cc2)Oc2ccc(O)cc21 (centres unmarked) [Example 38, 2-(4-(2-(Azetidin-1-yl)ethoxy)phenyl)-3-(3-hydroxyphenyl)-4-methyl-2H-chromen-6-ol] | ++ (++ = a single % value ≧50%) | – | –
13 | ≤ 1 nM | 60 to 85% | ≤ 1 nM | 40 to 65% | ≤ 1 nM | CC1=C(c2cccc(O)c2)C(c2ccc(OCCN3CCC[C@@H](C)C3)cc2)Oc2ccc(O)cc21 (stereo partly drawn) [Example 53, 3-(3-Hydroxyphenyl)-4-methyl-2-(4-(2-((R)-3-methylpiperidin-1-yl)ethoxy)phenyl)-2H-chromen-6-ol] | ++ (++ = a single % value ≧50%) | – | –
14 | ≤ 1 nM | 60 to 85% | ≤ 1 nM | ≥ 65% | ≤ 1 nM | CC1=C(c2ccccc2C)C(c2ccc(OC[C@H](C)N3CC[C@@H](C)C3)cc2)Oc2ccc(O)cc21 (stereo partly drawn) [Example 56, 4-Methyl-2-(4-((S)-2-((R)-3-methylpyrrolidin-1-yl)propoxy)phenyl)-3-(o-tolyl)-2H-chromen-6-ol] | ++ (++ = a single % value ≧50%) | – | –
15 | ≤ 1 nM | ≥ 85% | ≤ 1 nM | ≥ 65% | ≤ 1 nM | CC1=C(c2ccc(F)c(O)c2)C(c2ccc(OC[C@H](C)N3CC[C@@H](C)C3)cc2)Oc2ccc(O)cc21 (stereo partly drawn) [Example 57, 3-(4-Fluoro-3-hydroxyphenyl)-4-methyl-2-(4-((S)-2-((R)-3-methylpyrrolidin-1-yl)propoxy)phenyl)-2H-chromen-6-ol] | ++ (++ = a single % value ≧50%) | – | –
